Test results: patent US11063221B2, “Materials for electronic devices” (Merck Patent GmbH, priority 2014, dated 2021)
≈ marks a conversion by molar mass, not a printed value.

Test: Solubility of host materials (Table 4, solution-processed OLEDs)
Format: physicochemical
Details: Example V8

Question: For c1ccc(-c2c3ccccc3c(-c3cccc4c3ccc3cc5ccccc5cc34)c3ccccc23)cc1 [VH-3], which “Solubility / processability from solution (in words)” value is on record?
Answer: cannot be processed from solution at all owing to the low solubility

Same assay, conditions: host material; solvent not given (emission-layer mixture is dissolved in toluene)

Question: Which Solubility does the source give for Cc1c2ccccc2cc2c1ccc1c(-c3c4ccccc4c(-c4ccccc4)c4ccccc34)cccc12 [H-1] here?
Answer: 40 mg/mL (≈ 80.9 mM)

Question: With CC(C)Cc1c2ccccc2cc2c1ccc1c(-c3c4ccccc4c(-c4ccccc4)c4ccccc34)cccc12 [H-2] as the molecule, how does the Solubility read?
Answer: 45 mg/mL (≈ 83.8 mM)

Question: With c1ccc(-c2cc(-c3ccccc3)cc(-c3c4ccccc4c(-c4cccc5c4ccc4cc6ccccc6cc45)c4ccccc34)c2)cc1 [VH-1] as the molecule, how does the Solubility read?
Answer: 70 mg/mL (≈ 111 mM)

Question: Which Solubility does the source give for c1ccc(-c2c3ccccc3c(-c3cccc4c3ccc3cc5ccccc5cc34)c3ccccc23)cc1 [VH-3] here?
Answer: <1 mg/mL

Question: For c1ccc2cc(-c3c4ccccc4c(-c4cccc5ccccc45)c4ccccc34)ccc2c1 [VH-4], which Solubility is on record?
Answer: 44 mg/mL (≈ 102 mM)
